Assay results as given in ChEMBL document CHEMBL1159163, “Amselamine, a new selective histamine H2-receptor agonist” (Bioorg Med Chem Lett, 1994).

What was measured:
[1] = pKa1 (aliphatic amine); format: physicochemical; conditions: read-out: pKa1
[2] = pKa2 (heterocyclic ring); format: physicochemical; conditions: read-out: pKa2
Histamine H2 receptor = Histamine H2 receptor (Rattus norvegicus, UniProt P25102); test: Affinity to the Histamine H2 receptor was determined expressed in CHO cell using [125I]iodoaminopotentidine as radioligand; format: cell-based
Histamine H2 receptor, sequence (P25102 whole entry): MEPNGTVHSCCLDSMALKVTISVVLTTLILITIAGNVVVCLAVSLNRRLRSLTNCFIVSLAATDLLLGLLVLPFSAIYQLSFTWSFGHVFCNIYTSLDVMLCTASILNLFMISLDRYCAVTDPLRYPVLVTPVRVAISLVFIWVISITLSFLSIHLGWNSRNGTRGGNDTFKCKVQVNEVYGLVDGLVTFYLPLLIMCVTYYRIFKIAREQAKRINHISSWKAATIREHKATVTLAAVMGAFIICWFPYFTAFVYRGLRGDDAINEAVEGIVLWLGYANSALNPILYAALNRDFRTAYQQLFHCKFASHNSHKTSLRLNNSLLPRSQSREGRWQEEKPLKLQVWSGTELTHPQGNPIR

[3] = target: Histamine H3 receptor (Cavia porcellus) (UniProt Q9JI35); test: Tested for affinity towards Histamine H3 receptor in electrically stimulated guinea pig jejunum; format: tissue-based
Histamine H3 receptor (Cavia porcellus), sequence (Q9JI35 whole entry): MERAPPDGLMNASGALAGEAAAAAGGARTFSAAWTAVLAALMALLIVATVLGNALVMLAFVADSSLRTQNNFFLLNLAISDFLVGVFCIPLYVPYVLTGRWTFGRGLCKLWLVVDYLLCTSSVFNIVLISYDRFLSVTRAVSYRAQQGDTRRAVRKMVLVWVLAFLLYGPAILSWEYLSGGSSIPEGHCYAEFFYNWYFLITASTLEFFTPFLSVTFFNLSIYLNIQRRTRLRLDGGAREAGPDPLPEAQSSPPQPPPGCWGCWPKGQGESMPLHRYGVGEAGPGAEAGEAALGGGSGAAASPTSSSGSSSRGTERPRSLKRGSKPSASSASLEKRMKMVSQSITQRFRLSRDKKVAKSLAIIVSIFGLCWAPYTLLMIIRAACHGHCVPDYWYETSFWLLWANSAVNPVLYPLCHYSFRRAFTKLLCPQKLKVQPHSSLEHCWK

[4] = target: Histamine H2 receptor (Cavia porcellus) (UniProt P47747); test: Histamine H2 receptor activity was determined on the isolated spontaneously beating guinea pig right atrium; format: tissue-based; conditions: Cardiac atrium
Histamine H2 receptor (Cavia porcellus), sequence (P47747 whole entry): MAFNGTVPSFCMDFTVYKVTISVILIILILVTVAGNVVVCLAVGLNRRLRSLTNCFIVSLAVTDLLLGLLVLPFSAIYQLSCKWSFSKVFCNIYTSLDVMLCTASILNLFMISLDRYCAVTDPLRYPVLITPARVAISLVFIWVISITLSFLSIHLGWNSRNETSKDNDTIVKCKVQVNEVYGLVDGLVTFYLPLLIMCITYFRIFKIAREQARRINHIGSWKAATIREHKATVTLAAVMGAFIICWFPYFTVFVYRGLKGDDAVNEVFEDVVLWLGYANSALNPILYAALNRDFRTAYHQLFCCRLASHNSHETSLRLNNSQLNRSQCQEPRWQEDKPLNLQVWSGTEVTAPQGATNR

Histamine H1 receptor = Histamine H1 receptor (Cavia porcellus, UniProt P31389); test: Tested for affinity towards H1 receptor in guinea pig ileum; format: tissue-based; conditions: read-out: pA2 (converted)
Histamine H1 receptor, sequence (P31389 whole entry): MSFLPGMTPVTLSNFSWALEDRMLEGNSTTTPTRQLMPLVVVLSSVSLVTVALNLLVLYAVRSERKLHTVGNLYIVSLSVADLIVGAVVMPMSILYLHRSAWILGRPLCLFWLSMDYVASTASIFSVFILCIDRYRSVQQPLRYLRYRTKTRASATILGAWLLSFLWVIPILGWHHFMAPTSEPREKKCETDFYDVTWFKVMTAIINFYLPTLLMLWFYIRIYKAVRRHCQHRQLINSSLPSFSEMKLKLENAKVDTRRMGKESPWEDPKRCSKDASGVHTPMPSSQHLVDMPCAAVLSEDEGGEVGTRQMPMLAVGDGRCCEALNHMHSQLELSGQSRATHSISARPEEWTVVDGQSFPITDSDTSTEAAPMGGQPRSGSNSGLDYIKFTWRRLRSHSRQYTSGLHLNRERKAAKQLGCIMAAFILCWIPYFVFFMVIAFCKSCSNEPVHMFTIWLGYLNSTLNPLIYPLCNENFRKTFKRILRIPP

Row | Compound | pKa [1] | pKa [2] | Kd (Histamine H2 receptor) [µM] | pD2 [3] | pD2 [4] | Kb (Histamine H1 receptor) [µM]
1 | Cc1nc(N)sc1CCN [AMTHAMINE] | 9.15 | 5.4 | 11.5 | – | – | –
2 | Cc1nc(N)[se]c1CCN | 9.21 | 5.78 | 9.77 | 4.44 | 6.41 | 141
3 | NCCc1c[nH]cn1 [HISTAMINE] | 9.32 | 5.93 | 117 | – | – | –
